Measured values: patent publication US20210387983A1, “CRYSTALLINE ALK5 INHIBITORS AND USES THEREOF” (THERAVANCE BIOPHARMA R&D IP, LLC, priority 2020, published 2021)

Experiment: Dynamic moisture sorption (DMS) analysis
Assay type: physicochemical
Details: for XRPD pattern of solid after two consecutive sorption-desorption cycles: 5-90% RH, 25° C.; for total moisture gain: exposed to 5-90% relative humidity, about 25° C.; for hygroscopicity: from DMS data
Procedure: Dynamic moisture sorption (DMS) analysis was performed on weighed samples of the crystalline forms of the compound of Formula I using a VTI atmospheric microbalance, SGA-100 system (VTI Corp., Hialeah, Fla. 33016). Following an initial drying step (approximately 0% RH) of 2 hours, two cycles of sorption and desorption were completed isothermally at 25° C. at a scan rate of 5% RH/step over a humidity range of 5 to 90% RH. Representative DMS traces of polymorph Form I and polymorph Form II of a fumarate salt of the compound of Formula I and polymorph Form III of the compound of Formula I (freebase) are shown in FIG. 4, FIG. 8 and FIG. 12, respectively.

Compound | XRPD pattern of solid after two consecutive sorption-desorption cycles | total moisture gain | hygroscopicity
C[C@@H]1CN(CCNc2cnc3ccc(-c4nc[nH]c4-c4cc(Cl)ccc4F)nc3c2)C[C@H](C)N1.O=C(O)/C=C/C(=O)O [polymorph Form I, 6-(5-(5-chloro-2-fluorophenyl)-1H-imidazol-4-yl)-N-(2-((3S,5R)-3,5-dimethylpiperazin-1-yl)ethyl)-1,5-naphthyridin-3-amine, fumaric Acid] | no change in form | about 1.30 % by weight | slightly-hygroscopic
C[C@@H]1CN(CCNc2cnc3ccc(-c4nc[nH]c4-c4cc(Cl)ccc4F)nc3c2)C[C@H](C)N1.O=C(O)/C=C/C(=O)O [polymorph Form II, 6-(5-(5-chloro-2-fluorophenyl)-1H-imidazol-4-yl)-N-(2-((3S,5R)-3,5-dimethylpiperazin-1-yl)ethyl)-1,5-naphthyridin-3-amine, fumaric Acid] | no change in form | about 0.85 % by weight | slightly-hygroscopic
C[C@@H]1CN(CCNc2cnc3ccc(-c4nc[nH]c4-c4cc(Cl)ccc4F)nc3c2)C[C@H](C)N1 [polymorph Form III, 6-(5-(5-chloro-2-fluorophenyl)-1H-imidazol-4-yl)-N-(2-((3S,5R)-3,5-dimethylpiperazin-1-yl)ethyl)-1,5-naphthyridin-3-amine] | no change in form | about 0.6 % by weight | slightly-hygroscopic
